The structures appear in SMILES notation.

In general, melting point refers to the temperature, or range, at which the solid turns liquid. The molecule `COC(=O)c1cncnc1O` returned a melting point of 201 to 203 °C. For `Cc1ccnn1-c1ccc(C(=O)O)cc1`, the melting point was 243 to 245 °C. With `CCc1sc(C(=O)NNC(=O)CCl)cc1C` the figure was 160 to 162 °C; with `CCS(=O)(=O)CC(=O)O`, 57 to 59 °C. With `CC(O)CNC(=O)c1cccc(O)c1` (configuration not stated) the figure was 116 to 118 °C; with `Nc1cc(-c2cccc(Cl)c2)n[nH]1`, 130 to 132 °C; with `CS(=O)(=O)CCS(=O)(=O)c1ccc(N)cc1`, 209 to 211 °C. With `NC(=O)C1CCN(S(N)(=O)=O)CC1` the figure was 228 to 230 °C; with `O=c1c2ccccc2c(-c2nnc(S)o2)nn1Cc1ccccc1`, 238 to 242 °C. Take `NC(=O)NC1CC1`: the melting point lay in the range of 114 to 116 °C.

`O=C(NC1CCCCC1)c1cccnc1Cl` displayed a melting point of 132 to 134 °C. The same measure for `O=C(O)CC1OCCc2ccsc21` (configuration not stated): 109 to 111 °C; for `O=C(O)CCC(=O)c1ccc(I)cc1`: 175 to 177 °C; for `CC(=O)N1Cc2ccc(N)cc2C1`: 169 to 171 °C.

For `NCC(c1ccccc1)c1c[nH]c2ccccc12` (configuration not stated), the melting point fell in the range of 123 to 125 °C. As to `CCOc1cc(C(=O)O)ccc1OC(F)F`, the melting point lay in the range of 159 to 161 °C. `O=C(O)C1CCN(C(=O)c2ccccc2)CC1` had a melting point of 144 to 146 °C. The same measure for `CCOC(=O)c1c(N)sc(C(=O)NC)c1C`: 151 to 153 °C; for `Nc1ccc(-c2cc3ccccc3o2)cc1`: 281 to 283 °C; for `CC(C)NC(=O)c1ccc(C(=O)O)cc1`: 179 to 181 °C. The same measure for `Nc1nnns1`: 120 to 122 °C; for `CC1CCCN(C(N)=S)C1` (configuration not stated): 103 to 105 °C. As for `CC(=O)N1CC(C)CNc2ccccc21` (configuration not stated), the melting point was 141 to 143 °C. The molecule `COCCOc1ccc(Cl)cc1C#N` yielded a melting point of 64 to 66 °C. In turn, `N#CC1(C(=O)O)CCc2ccccc2C1` (configuration not stated) returned a melting point of 123 to 125 °C.

As for `O=S1(=O)CCNCC12CCCCC2`, the melting point lay within 99 to 101 °C. The same measure for `CC(C)(C)S(=O)(=O)Cc1cccc(N)c1`: 175 to 177 °C; for `CC(=O)c1cccc(S(=O)(=O)NCCC(=O)O)c1`: 106 to 110 °C. As to `COC(=O)c1c(O)cc(=O)n2c1CCC2`, the melting point was 167 to 169 °C. `Cc1cc(N)n(C2CCS(=O)(=O)C2)n1` (configuration not stated): the melting point lay in the range of 215 to 217 °C. The molecule `Cc1nnc(Sc2ccc(N)c(C)c2)s1` showed a melting point of 142 to 144 °C. Turning to `O=C(O)CCSc1ccccc1Cl`, the melting point lay within 92 to 102 °C.

Regarding `O=C(O)CCCN1C(=O)CNC1=O`, the melting point fell in the range of 151 to 153 °C. For the molecule `Oc1ncc(F)cc1I`, the melting point is 119 to 121 °C. With `O=C(O)c1cc(-c2cccc(F)c2)no1`, the melting point lay in the range of 189 to 191 °C.

Turning to `Cc1ccccc1Nc1nc(Cl)c(C=O)s1`, the melting point lay within 153 to 155 °C. With `Cc1scc(C(=O)O)c1C` the figure was 139 to 141 °C; with `CNCc1nc(-c2ccccc2)c[nH]1`, 117 to 119 °C; with `NNc1cccnc1Cl`, 149 to 151 °C. For `O=C(O)c1cc(Cl)no1`, the melting point fell in the range of 139 to 141 °C. The same measure for `CCCOc1ccc2[nH]cc(CO)c2c1`: 89 to 91 °C; for `Cn1nnnc1-c1cccc(S(=O)(=O)Cl)c1`: 86 to 88 °C. With `O=C(O)c1cccc(Oc2cnccn2)c1` the figure was 112 to 114 °C.

`O=Cc1ccccc1OCC(=O)NCC1CC1` registered a melting point of 93 to 95 °C. With `O=c1[nH]c(CCl)nc2ccc(Cl)cc12`, the melting point is 249 to 251 °C. With `OC[C@@H](O)CNCCC(F)(F)F` the figure was 34 to 36 °C; with `O=C(O)CCNS(=O)(=O)c1c(Cl)cccc1Cl`, 119 to 121 °C. Turning to `COc1ccc(-c2ccc(C(=O)O)c(F)c2)cc1`, the melting point is 201 to 203 °C. The same measure for `CC(=O)c1ccccc1NS(=O)(=O)c1cccs1`: 150 to 152 °C; for `CCNC(=O)c1cc(Cl)ccc1N`: 122 to 124 °C. In turn, `O=c1[nH]cnc2ccc(Br)cc12` returned a melting point of 267 to 271 °C.

As for `Nc1ccc(CNC(=O)c2ccc(Br)cc2)cc1`, the melting point lay in the range of 173 to 175 °C. In turn, `NC(=O)c1c[nH]cn1` displayed a melting point of 194 to 196 °C. With `CCCC(NC(N)=O)C(=O)O` (configuration not stated) the figure was 170 to 172 °C; with `CC(C)(C(N)=O)c1ccc(N)cc1`, 122 to 124 °C.

On to `CC1=CC(=O)N(c2ccccc2F)C1=O`, for which the melting point was in the range of 83 to 85 °C. The same measure for `Cc1nc(NC(=N)N)nc2ccccc12`: 339 to 341 °C. `CNC1CCN(C2CCOCC2)CC1`: the melting point fell in the range of 32 to 34 °C.

As for `O=C(Nc1nncs1)OCC(F)(F)F`, the melting point was 213 to 215 °C. In turn, `Nc1ccc(Oc2ccnc3ccccc23)c(F)c1` yielded a melting point of 158 to 160 °C. In turn, `CC(C)Cc1ccc(C2(C)NC(=O)NC2=O)cc1` (configuration not stated) yielded a melting point of 178 to 180 °C. The molecule `Cc1cccc(C2(C(=O)O)CCCC2)c1` displayed a melting point of 156 to 158 °C. Turning to `O=C(O)CNS(=O)(=O)c1ccc(Cl)s1`, the melting point was 142 to 144 °C. With `Cc1cc(C(=O)CCl)c(C)n1-c1ccc(OC(F)(F)F)cc1` the figure was 76 to 80 °C; with `CC(C)(C)OC(=O)N1CC2(CNC(=O)C2)C1`, 163 to 165 °C; with `O=C1C=CC(=O)N1c1cc([N+](=O)[O-])ccc1Cl`, 73 to 75 °C. `O=c1[nH]cnc2nc(N3CCOCC3)sc12` came in with a melting point of 397 to 399 °C. As to `O=C(O)c1cnn(-c2ncccc2Cl)c1C(F)(F)C(F)(F)F`, the melting point fell in the range of 141 to 143 °C. The same measure for `Cc1c(C(=O)O)nnn1-c1ccc(Cl)cc1F`: 164 to 166 °C; for `Cc1nn(CC(=O)O)c(C)c1/C=N/O`: 203 to 205 °C.

As for `Nc1ccc(OC(F)F)c2ncccc12`, the melting point fell in the range of 119 to 121 °C. `Cc1cc(N)ccc1Oc1cccnc1` displayed a melting point of 90 to 92 °C. Molecule `O=C(CCl)Nc1ccc2[nH]c(=O)[nH]c2c1` came in with a melting point of 230 to 232 °C. With `CC(C)NS(=O)(=O)c1ccccc1C(=O)O`, the melting point was in the range of 111 to 113 °C. Consider `O=C1NCCC1c1ccccc1` (configuration not stated), for which the melting point lay in the range of 82 to 84 °C. The same measure for `CS(=O)(=O)Nc1ccc(N)cc1Cl`: 181 to 183 °C; for `CNS(=O)(=O)c1cc(C(=O)O)ccc1OC`: 221 to 223 °C. The molecule `CC1CNc2cc(Cl)ccc2O1` (configuration not stated) returned a melting point of 75 to 77 °C.

Consider `ON=Cc1ccc(OCc2ccccc2)cc1`, for which the melting point was in the range of 109 to 111 °C. In turn, `COc1cccc(-c2noc(SCC(=O)O)n2)c1` showed a melting point of 103 to 105 °C.

Molecule `O=C1CCCC(C(=O)O)N1` (configuration not stated) came in with a melting point of 94 to 96 °C. With `N#Cc1ccc(-n2nccc2N)cc1` the figure was 114 to 116 °C; with `Fc1cccc(-c2noc(S)n2)c1`, 93 to 95 °C; with `O=C(O)c1cccc(CSc2cc(Cl)cc(Cl)c2)c1`, 147 to 149 °C. With `Nc1nnc(N2CCC(C(=O)O)CC2)[nH]1`, the melting point lay within 264 to 266 °C. With `CCOc1cc(C=O)cc(Br)c1OCc1ccccc1` the figure was 55 to 57 °C.

Molecule `Cc1nc2sccc2c(=O)n1N` came in with a melting point of 181 to 183 °C. The same measure for `COc1ccc(C(=O)Nc2ccc(C(=O)O)cc2)cc1OC`: 259 to 261 °C; for `O=C(O)c1ccc2c3c(cccc13)CC2`: 220 to 223 °C; for `Cc1cc2ncn(C(C)c3ccccc3)c2cc1C` (configuration not stated): 169 to 171 °C.

The molecule `O=C(O)CCn1ccc2ccccc21` returned a melting point of 49 to 51 °C. With `NC(=O)CCc1ccc(F)c(F)c1` the figure was 99 to 101 °C; with `O=C(O)c1cnc(Cl)nc1Cl`, 96 to 98 °C; with `Cc1ccc(S(=O)(=O)N2CCCCC2)cc1C(=O)O`, 197 to 199 °C. On to `O=C1OCCc2cc3c(=O)[nH]c(=O)[nH]c3nc21`, for which the melting point fell in the range of 380 to 382 °C. With `COc1ccc(S(=O)(=O)N(C)c2ccc(O)cc2)cc1` the figure was 88 to 90 °C.

For `NC(=O)Cn1cnc(-c2ccccc2)c1N`, the melting point lay within 209 to 211 °C.

With `CCOC(=O)c1noc(-c2cccc(F)c2-n2ccnc2)n1`, the melting point lay in the range of 128 to 130 °C. With `Cn1cc(C(=O)O)c(-c2ccc3c(c2)OCCCO3)n1` the figure was 199 to 201 °C; with `CC(C)(C)c1nc2ccc(N)cc2s1`, 137 to 139 °C.

Turning to `O=C(O)c1cccn1Cc1cccnc1`, the melting point is 172 to 174 °C. The same measure for `Nc1nnc(-c2ccc3c(c2)CCC3)o1`: 273 to 275 °C. Consider `CS(=O)(=O)c1ccc(OCCCC(=O)O)cc1`, for which the melting point was 150 to 152 °C. For the molecule `CC(C)(C)CCS(N)(=O)=O`, the melting point fell in the range of 91 to 93 °C. The molecule `CCOC(=O)C(=O)c1csc(N)n1` had a melting point of 78 to 80 °C. With `NC(c1ccccc1)c1ccncc1` (configuration not stated) the figure was 40 to 42 °C; with `Nc1nc(-c2ccc3c(c2)CC(=O)N3)cs1`, 249 to 251 °C. `NS(=O)(=O)C(F)F` displayed a melting point of 59 to 61 °C.

Consider `O=C(CCl)N1CCCC1c1ccc2c(c1)OCCO2` (configuration not stated), for which the melting point is 168 to 169 °C. With `COC(=O)c1ccc(CN2CCC(CO)CC2)cc1` the figure was 54 to 56 °C; with `O=C(O)C1CCCN(S(=O)(=O)c2ccc(Br)s2)C1` (configuration not stated), 157 to 159 °C; with `CCCC(C)(N)C(=O)O` (configuration not stated), 269 to 271 °C.

In the case of `Cc1[nH]n(C(N)=S)c(=O)c1CCO`, the melting point was in the range of 153 to 155 °C.

As for `O=C(O)Cc1coc(-c2ccc(F)cc2)n1`, the melting point is 166 to 168 °C.

`Nc1cc(Br)ccc1S(N)(=O)=O` showed a melting point of 142 to 144 °C.

As to `CC1=CC=CC(=C2Nc3cc(F)ccc3N2C(C)C)C1=N`, the melting point fell in the range of 185 to 187 °C. On to `CC1C(=O)NCCN1C(=O)c1cccs1` (configuration not stated), for which the melting point lay within 129 to 131 °C. The same measure for `N#Cc1c(F)cccc1Oc1ccc(C(=O)O)cc1`: 186 to 188 °C. The same measure for `Cc1cc(C(=O)O)nn1C1CCCCC1`: 145 to 147 °C. For `O=C(O)C1=NN(C2CCS(=O)(=O)C2)C(=O)CC1` (configuration not stated), the melting point was 138 to 140 °C. The same measure for `O=C1COc2ccc(F)cc2N1`: 204 to 206 °C; for `Cc1cc(N)ccc1OCCN1CCCC1`: 112 to 114 °C.

The values are drawn from a melting point compilation (Tetko et al.).
